How the values were obtained:
[1] = FPLC size exclusion chromatography of CPP variants in PBS; assay type: physicochemical; conditions: Superdex 200 Increase 10/300, relative to P4-(C5)2
Method: All samples were run in a 200 μL volume on a Superdex 200 Increase 10/300 column on an AKTA purifier FPLC system. The absorbance at 280 nm as a function of elution volume was normalized to the maximal absorbance of each peptide and plotted using GraphPadPrism 7.0.

SNI mice [2] = assay: SNI neuropathic pain model, subcutaneous administration, Von Frey; assay type: in vivo; conditions: 10 μmol/kg s.c.
Method: Mice: 8 weeks old C57BI6J mice (from Charles River)
10 μmol/kg peptide solution was subcutaneously administered (100 μL/10 g).
Spared Nerved Injury surgery: The surgery was performed on anaesthetized mice. A complete ligature and transection of the common peroneal and tibial distal branches of the sciatic nerve was performed, leaving the sural branch intact. The operated side is referred to as the ipsilateral side and the non-operated side is referred to as the contralateral side. 7 days post-surgery, a decrease of threshold response to Von Frey filaments of ipsilateral hind paw was observed.
Mechanical threshold response: The mechanical threshold response of the operated mice was measured with calibrated Von Frey filaments using up/down method, and the 50% threshold (g) was calculated (see equation 1). Mechanical pain responses are defined as paw withdrawal, flinching and/or paw licking following filament prick. The experimenter was blinded to mice treatment. One baseline measure was performed before surgery, one measure 7 days after surgery (D+7) before drug's administration. One measure was performed 1 h, 2 h, 3 h and 4 h post drug administration. n=8 mice/timepoint for peptide treatment.
Statistical analysis: Statistical analysis was performed using Graphpad Prism 7.0. Pain threshold, measured as paw withdrawal threshold, was compared between time “before drug effect” and time points after drug administration (+1, +2, +3, +4 hrs), or against vehicle control (all time points). Two-way RM ANOVA followed by Dunnet's multiple comparison tests. Significance level set to p<0.05.

SNI mice [3] = assay: Spared nerve injury (SNI) model, Von Frey test, intrathecal or i.p. administration; assay type: in vivo
Method: Spared nerve injury model (SNI) was performed according to methods described in Richner et al., 2011. Briefly, under isoflurane (2%) anaesthesia, the skin on the left lateral surface of the thigh was incised and the biceps femoris muscle was divided and spread lengthwise to expose the three branches of the sciatic nerve. After exposing the three branches (common peroneal, tibial and sural) in anesthetized mice, the common peroneal and tibial branches were carefully segregated from surrounding tissues, tightly ligated and axotomized ˜2 mm of the distal nerve stump, while the sural branch was left intact.
Drugs were administered either intrathecally to anesthetized mice or intraperitoneally (i.p.).
The development and level of mechanical threshold was determined in the affected hind paws 2 days after the SNI procedure by using Von Frey filaments ranging from 0.02 to 1.4 g. In the current experiments filaments in ascending order were applied to the lateral part of the hind paws. Each Von Frey hair was applied five times over a total period of 30 seconds and the mouse's reaction was assessed after each application; the threshold for a positive test was set at 3 trials, which evoked responses out of a maximum of 5 trials. […] Forces of the instrument are measured with units “g” and represent the gram-forces. […]

PBS stability = assay type: physicochemical; conditions: 37° C., 24 hrs
Method: (§1) 360 μL undiluted human male serum (Sigma; H4522) or PBS was kept at 37° C. for 15 min, followed by addition of 40 μL (500 uM) of relevant peptide and subsequent incubation at 37° C. For stability analysis, 45 μL samples was taken out at t=0 min and t=24 hrs, and samples quenched by addition of 50 μL 6M urea followed by incubation at 37° C. for additional 30 min. 50 μL 20% TCA (W7V) in acetone was added to each sample before incubation for at least 16 hrs at 5° C. Samples were centrifuged at 14.000×g for 30 min and supernatants collected and filtered using a 0.22 μm syringe filter. Samples were analyzed on an Acquity UPLC H-Class instrument using a C18 column with a 15 min 10-80% […] gradient. Remaining analyte (%) was calculated as the area under curve (AUC) of the main peak at indicated time points relative to the sample at t=0 min.

Plasma stability = assay type: in vitro ADME; conditions: human, 37° C., 24 h incubation
Method: as §1

PICK1 PDZ domain = molecular target: T1, PICK1 PDZ domain (Rattus norvegicus, UniProt Q9EP80); assay: Fluorescence polarization competition binding to PICK1 (Example 1); conditions: PEGx dimerization of C5
T1 construct: made in house; host or cells: E. coli BL21-DE3-pLysS
T1 sequence (Q9EP80 whole entry, the tested form may be a part): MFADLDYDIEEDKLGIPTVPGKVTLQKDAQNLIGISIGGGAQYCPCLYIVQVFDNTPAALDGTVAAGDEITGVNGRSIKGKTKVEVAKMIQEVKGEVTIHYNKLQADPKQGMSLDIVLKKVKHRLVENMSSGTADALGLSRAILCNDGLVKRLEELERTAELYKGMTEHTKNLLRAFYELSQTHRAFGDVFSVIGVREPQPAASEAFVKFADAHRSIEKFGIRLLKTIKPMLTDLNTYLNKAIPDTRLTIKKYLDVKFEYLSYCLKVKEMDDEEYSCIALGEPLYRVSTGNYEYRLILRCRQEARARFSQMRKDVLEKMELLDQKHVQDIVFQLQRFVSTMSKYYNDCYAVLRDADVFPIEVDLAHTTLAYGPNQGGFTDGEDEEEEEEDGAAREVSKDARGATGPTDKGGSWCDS
Method: Protein expression was induced with 10 mM Isopropyl β-D-1-thiogalactopyranoside (IPTG) and grown overnight at 20° C. […] Resuspended pellet was frozen at −80° C. to induce cell lysis. The bacterial suspension was thawed and cleared by centrifugation. The supernatant was collected and incubated with Glutathione-Sepharose 4B beads for 2 hrs at 4° C. under gentle rotation. […] Washed beads were transferred to a PD10 gravity column. Bead solution was incubated with thrombin protease overnight at 4° C. under gentle rotation.
Fluorescence polarization was carried out in saturation mode and competition mode.

PICK1 = molecular target: T2, PICK1 (Rattus norvegicus, UniProt Q9EP80); assay: biochemical; assay type: binding; conditions: for Fold affinity change: compared to TAT-P4-(C5)2
T2 construct: made in house; host or cells: E. coli BL21-DE3-pLysS
T2 sequence (Q9EP80 whole entry): as the sequence (Q9EP80 whole entry, the tested form may be a part) above
Method: The data was plotted in GraphPad Prism 7.0 and fitted to a ‘One site-Fit’ Ki curve and the apparent affinities (Ki) for the unlabelled peptides were determined using correction for depletion.

[4] = molecular target: T3, PICK1 pre-bound to TacDAT C24 (Rattus norvegicus, UniProt Q9EP80); assay: SCMS dissociation of pre-bound PICK1; assay type: binding; conditions: pre-bound PICK1 on TacDAT C24 SCMS
T3 construct: Partner: transfected HEK293-GT cells, ruptured into membrane sheets
T3 sequence (Q9EP80 whole entry): as the sequence (Q9EP80 whole entry, the tested form may be a part) above
Method: Human Embryo Kidney 293 GripTite cells (HEK293-GT) for SCMS were grown i in Dulbecco's modified Eagle's medium 1965 with fetal calf serum and pen-strep antibiotics. Cells were transfected using TAC-YFP-DATC24 DNA (pEYFP-C1 vector) and lipovectamin in opti-MEM® overnight. Cells were washed once with PBS and detached using 0.5% Trypsin with EDTA. Cells were then seeded into 6-well plates and allowed to grow and attach overnight at 37° C. in humidified 10% CO2 atmosphere.
The SCMS was prepared as described in (Perez et al., 2006). In brief, round cover glasses were plasma cleaned and coated with 0.3 mM poly-L-ornithine hydrobromide (Poly-ORN) for 30 min. The coating Poly-ORN was then removed. Seeded and transfected cells were then washed twice to allow them to swell. The swelled cells were then covered with the cover glass with the Poly-ORN coated side facing down on the cells. Dynamic pressure was manually applied to the cover glass using the piston from a 12 ml plastic syringe for a total of 1 min. The force from removing the cover glass causes some cells to rupture and leave a SCMS on the surface of the cover glass. […] A protein solution was then added to the cover glass and left to incubate for the desired amount of time depending on the experiment. […] The protein: peptide solution was then added to the SCMS-cover glass and incubated for 2 hours. […]

CC[C@H](C)[C@H](NC(=O)[C@H](CCCCN)NC(=O)[C@@H](NC(=O)[C@H](CCC(N)=O)NC(=O)[C@@H](N)CCCNC(=N)N)[C@@H](C)CC)C(=O)N[C@@H](Cc1c[nH]c2ccccc12)C(=O)N[C@@H](Cc1ccccc1)C(=O)N[C@@H](CCC(N)=O)C(=O)N[C@@H](CC(N)=O)C(=O)N[C@@H](CCCNC(=N)N)C(=O)N[C@@H](CCCNC(=N)N)C(=O)N[C@@H](CCSC)C(=O)N[C@@H](CCCCN)C(=O)N[C@@H](Cc1c[nH]c2ccccc12)C(=O)N[C@@H](CCCCN)C(=O)N[C@@H](CCCCN)C(=O)N(CCOCCOCCC(=O)N[C@@H](Cc1c[nH]cn1)C(=O)N[C@@H](Cc1c[nH]c2ccccc12)C(=O)N[C@@H](CC(C)C)C(=O)N[C@@H](CCCCN)C(=O)N[C@H](C(=O)O)C(C)C)CCOCCOCCC(=O)N[C@@H](Cc1c[nH]cn1)C(=O)N[C@@H](Cc1c[nH]c2ccccc12)C(=O)N[C@@H](CC(C)C)C(=O)N[C@@H](CCCCN)C(=O)N[C@H](C(=O)O)C(C)C [PNT-P4-(C5)2]
in-solution oligomeric behavior from elution volume [1]: smaller oligomers than P4-(C5)2 or direct interaction with the column material | ipsilateral paw mechanical threshold compared to before drug administration (SNI mice [2]; any time-point): did not show significant increase | ipsilateral paw mechanical threshold compared to vehicle (SNI mice [2]; any time-point): no significant increase

CCOC(=O)NC(=O)/C(C#N)=C/c1ccc(Cl)c(Cl)c1 [FSC231]
mechanical hypersensitivity / withdrawal threshold, acute phase (SNI mice [3]; intrathecal, two days after operation): did not affect withdrawal threshold

CC(C)C[C@H](NC(=O)[C@H](Cc1c[nH]c2ccccc12)NC(=O)[C@H](Cc1cnc[nH]1)NC(=O)[C@H](CCCNC(=N)N)NC(=O)[C@H](CCCNC(=N)N)NC(=O)[C@H](CCCNC(=N)N)NC(=O)[C@H](CCC(N)=O)NC(=O)[C@H](CCCNC(=N)N)NC(=O)[C@H](CCCNC(=N)N)NC(=O)[C@H](CCCCN)NC(=O)[C@H](CCCCN)NC(=O)[C@H](CCCNC(=N)N)NC(=O)CNC(=O)[C@@H](N)Cc1ccc(O)cc1)C(=O)N[C@@H](CCCCN)C(=O)N[C@H](C(=O)O)C(C)C [TAT-C5]
stability in PBS (PBS stability): good stability in PBS | plasma stability (Plasma stability): improved

CC(C)C[C@H](NC(=O)[C@H](Cc1c[nH]c2ccccc12)NC(=O)[C@H](Cc1c[nH]cn1)NC(=O)CCOCCOCCOCCOCCOCCC(=O)N[C@@H](Cc1c[nH]cn1)C(=O)N[C@@H](Cc1c[nH]c2ccccc12)C(=O)N[C@@H](CC(C)C)C(=O)N[C@@H](CCCCN)C(=O)N[C@H](C(=O)O)C(C)C)C(=O)N[C@@H](CCCCN)C(=O)N[C@H](C(=O)O)C(C)C [P4-(C5)2, PEG4-(HWLKV)2]
fold increase in affinity compared to monomeric C5 (PICK1 PDZ domain): 15 fold

CC(C)C[C@H](NC(=O)[C@H](C)NC(=O)[C@H](CCCCN)NC(=O)[C@H](CC(C)C)NC(=O)[C@H](C)NC(=O)[C@H](CC(C)C)NC(=O)[C@H](CCCCN)NC(=O)[C@H](CC(C)C)NC(=O)[C@H](C)NC(=O)[C@H](CC(C)C)NC(=O)[C@@H](N)CCCCN)C(=O)N[C@@H](CCCCN)C(=O)N[C@@H](C)C(=O)N[C@@H](C)C(=O)N[C@@H](CC(C)C)C(=O)N[C@@H](CCCCN)C(=O)N[C@@H](CC(C)C)C(=O)N[C@@H](C)C(=O)N(CCOCCOCCC(=O)N[C@@H](Cc1c[nH]cn1)C(=O)N[C@@H](Cc1c[nH]c2ccccc12)C(=O)N[C@@H](CC(C)C)C(=O)N[C@@H](CCCCN)C(=O)N[C@H](C(=O)O)C(C)C)CCOCCOCCC(=O)N[C@@H](Cc1c[nH]cn1)C(=O)N[C@@H](Cc1c[nH]c2ccccc12)C(=O)N[C@@H](CC(C)C)C(=O)N[C@@H](CCCCN)C(=O)N[C@H](C(=O)O)C(C)C [MAP-P4-(C5)2]
in-solution oligomeric behavior from elution volume [1]: forms higher oligomeric structures than P4-(C5)2 | Ki (PICK1): 5.1 nM | Fold affinity change (PICK1): 0.8 fold | ipsilateral paw mechanical threshold compared to before drug administration (SNI mice [2]; 1 h): significant increase | ipsilateral paw mechanical threshold compared to before drug administration (SNI mice [2]; 2 h): significant increase | ipsilateral paw mechanical threshold compared to vehicle (SNI mice [2]; 2 h): significant increase

CC(C)C[C@H](NC(=O)[C@H](Cc1c[nH]c2ccccc12)NC(=O)[C@@H](N)Cc1cnc[nH]1)C(=O)N[C@@H](CCCCN)C(=O)N[C@H](C(=O)O)C(C)C [C5, HWLKV]
stability in PBS (PBS stability): good stability in PBS | plasma stability (Plasma stability): full degradation | dissociation of pre-bound PICK1 from SCMSs [4]: neither C5 nor TAT-(C5) could significantly dissociated PICK1 from SCMSs

CC[C@H](C)[C@H](NC(=O)[C@H](CCCCN)NC(=O)CNC(=O)[C@H](CC(C)C)NC(=O)[C@H](CC(C)C)NC(=O)[C@H](Cc1ccc(O)cc1)NC(=O)CNC(=O)[C@H](C)NC(=O)[C@H](CO)NC(=O)[C@H](CC(N)=O)NC(=O)[C@H](CC(C)C)NC(=O)[C@@H](NC(=O)[C@H](Cc1c[nH]c2ccccc12)NC(=O)CN)[C@@H](C)O)C(=O)N[C@@H](CC(N)=O)C(=O)N[C@@H](CC(C)C)C(=O)N[C@@H](CCCCN)C(=O)N[C@@H](C)C(=O)N[C@@H](CC(C)C)C(=O)N[C@@H](C)C(=O)N[C@@H](C)C(=O)N[C@@H](CC(C)C)C(=O)N[C@@H](C)C(=O)N[C@@H](CCCCN)C(=O)N[C@@H](CCCCN)C(=O)N[C@H](C(=O)N[C@@H](CC(C)C)C(=O)N(CCOCCOCCC(=O)N[C@@H](Cc1c[nH]cn1)C(=O)N[C@@H](Cc1c[nH]c2ccccc12)C(=O)N[C@@H](CC(C)C)C(=O)N[C@@H](CCCCN)C(=O)N[C@H](C(=O)O)C(C)C)CCOCCOCCC(=O)N[C@@H](Cc1c[nH]cn1)C(=O)N[C@@H](Cc1c[nH]c2ccccc12)C(=O)N[C@@H](CC(C)C)C(=O)N[C@@H](CCCCN)C(=O)N[C@H](C(=O)O)C(C)C)[C@@H](C)CC [TP10-P4-(C5)2]
in-solution oligomeric behavior from elution volume [1]: smaller oligomers than P4-(C5)2 or direct interaction with the column material | Fold affinity change (PICK1): 0.5 fold | ipsilateral paw mechanical threshold compared to before drug administration (SNI mice [2]; 2 h): significant increase | ipsilateral paw mechanical threshold compared to vehicle (SNI mice [2]; 2 h): significant increase

NCC1(CC(=O)O)CCCCC1 [gabapentin]
mechanical hypersensitivity, chronic phase (SNI mice [3]; 30 mg/kg i.p., day 14 after surgery, at 2 hours): full recovery from mechanical hypersensitivity
